Results on three molecules are retold here after patent US6100077A, “Isolation of a gene encoding diacylglycerol acyltransferase” (priority 1998, dated 2000).

The target of one data set is T1, human ACAT1 (Homo sapiens, UniProt P35610).
T1 construct: A cDNA corresponding to the coding region of human ACAT1 flanked by 5 bp of 5' untranslated region and 1 bp of 3' untranslated region; made in house; host or cells: Saccharomyces cerevisiae strain SCY059 (are1 are2 deleted), vector pRS426GP, GAL1/GAL10 promoter; microsomes
T1 sequence (P35610 1-550): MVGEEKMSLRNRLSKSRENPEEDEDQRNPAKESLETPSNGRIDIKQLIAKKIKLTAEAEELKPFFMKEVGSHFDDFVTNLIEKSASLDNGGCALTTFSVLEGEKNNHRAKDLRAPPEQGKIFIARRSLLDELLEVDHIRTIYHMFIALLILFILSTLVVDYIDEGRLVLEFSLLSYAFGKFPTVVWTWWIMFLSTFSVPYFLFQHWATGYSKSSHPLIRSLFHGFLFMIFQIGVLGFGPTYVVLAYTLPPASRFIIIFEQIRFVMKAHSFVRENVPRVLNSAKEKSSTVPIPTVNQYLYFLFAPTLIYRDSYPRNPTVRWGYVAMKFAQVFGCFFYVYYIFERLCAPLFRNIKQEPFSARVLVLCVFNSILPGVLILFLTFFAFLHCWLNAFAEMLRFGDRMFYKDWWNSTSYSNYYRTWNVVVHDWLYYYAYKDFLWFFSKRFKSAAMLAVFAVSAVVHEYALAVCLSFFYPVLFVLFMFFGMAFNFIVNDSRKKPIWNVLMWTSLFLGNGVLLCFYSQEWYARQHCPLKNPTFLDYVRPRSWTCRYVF
The data set can be described thus: In vitro assay of ACAT activity in yeast microsomes expressing human ACAT1 (inhibitor sensitivity). The format is biochemical. From the text: (§1) In Vitro Assay of ACAT Activity in Yeast Microsomes. The cDNA inserts of the longest ARGP1 and ARGP2 HepG2 library clones were removed by NotI, EcoRI digestion and ligated into the yeast expression vector pRS426GP which utilizes the galactose inducible GAL1/GAL10 promoter. A cDNA corresponding to the coding region of human ACAT1 flanked by 5 bp of 5' untranslated region and 1 bp of 3' untranslated region, in pRS426GP was described previously (27). Yeast strain, SCY059 (MATα, ade2-1, can1-1, trp1-1, ura3-1, his3-11, 15, leu2-3, 112, metl4Δ14HpaI-SalI,are1ΔNA::HIS3, are2Δ::LEU2 ) with deletions in ARE1 and ARE2, the yeast homologs of human ACAT1 (4), was transformed with the above constructs or pRS426GP using lithium acetate and nucleic acid prototrophy selection (28). […] Culturing of the transformed yeast, induction of expression, microsome isolation, and sterol esterification assays were as described previously […]. In those experiments involving diethylpyrocarbonate (DEPC) to modify histidine residues, a preincubation with 100 μM DEPC was performed as described (2).
(§2) Assay of ACAT activity in ACAT negative yeast transformed with ARGP1 and ARGP2. The ability of ARGP1 and ARGP2 to esterify sterols was assayed in a sterol esterification deficient yeast strain (SCY059) in which the endogenous ARE genes were deleted . […]

Another data set has as its target T2, ACAT2 (ARGP2) (Homo sapiens, UniProt O75908).
T2 construct: The cDNA inserts of the longest ARGP1 and ARGP2 HepG2 library clones were removed by NotI, EcoRI digestion and ligated into the yeast expression vector; made in house; host or cells: Saccharomyces cerevisiae strain SCY059 (are1 are2 deleted), vector pRS426GP, GAL1/GAL10 promoter; microsomes
T2 sequence (O75908 1-522): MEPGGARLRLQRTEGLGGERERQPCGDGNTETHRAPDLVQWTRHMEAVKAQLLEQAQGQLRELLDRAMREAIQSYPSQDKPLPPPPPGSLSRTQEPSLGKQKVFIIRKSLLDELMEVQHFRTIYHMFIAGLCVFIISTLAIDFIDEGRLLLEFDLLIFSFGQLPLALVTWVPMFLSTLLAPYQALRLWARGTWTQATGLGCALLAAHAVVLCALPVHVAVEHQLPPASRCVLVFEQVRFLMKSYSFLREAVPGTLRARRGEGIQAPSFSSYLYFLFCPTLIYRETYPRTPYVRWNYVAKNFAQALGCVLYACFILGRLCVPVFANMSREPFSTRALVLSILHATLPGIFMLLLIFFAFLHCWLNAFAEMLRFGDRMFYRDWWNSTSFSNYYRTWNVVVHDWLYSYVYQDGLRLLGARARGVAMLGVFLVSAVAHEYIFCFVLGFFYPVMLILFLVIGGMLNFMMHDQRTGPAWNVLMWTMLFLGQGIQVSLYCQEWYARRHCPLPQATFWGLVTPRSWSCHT
The data set can be described thus: In vitro assay of ACAT activity in yeast microsomes expressing ARGP2 (ACAT2) (inhibitor sensitivity). Format: biochemical.
Text: as §1, §2

In data set [1] the test system is incorporation of [14C]-oleate into sterol ester. The data set can be described thus: In vitro microsomal ACAT activity of cDNAs expressed in ACAT-negative yeast SCY059.
Text: as §1
Assay of ACAT activity in ACAT negative yeast transformed with ARGP1 and ARGP2. The ability of ARGP1 and ARGP2 to esterify sterols was assayed in a sterol esterification deficient yeast strain (SCY059) in which the endogenous ARE genes were deleted . Microsomes from these yeast, transformed with an expression vector harboring no insert or cDNA inserts for ARGP1, ARGP2, or human ACAT1 were assayed in vitro for the incorporation of [^14 C]-oleate into sterol ester.

“Also recorded” adds a separate entry of the source. Like-named read-outs stand apart in the source and are kept apart here.

With `CCOC(=O)OC(=O)OCC` [DEPC, diethylpyrocarbonate], the “Degree of Inhibition” value turned out to be 80% at human ACAT1 (100 μm DEPC, ACAT1) and 33% on ACAT2 (ARGP2) (100 μm DEPC, ACAT2). For the same molecule, the “Active site Modification: Plus DEPC (100 μm) (ACAT activity)” value is on record as 69 +/- 4 at human ACAT1 (ACAT1 microsomes preincubated with 100 μm DEPC, triplicate) and 30 +/- 1 on ACAT2 (ARGP2) (ACAT2 microsomes preincubated with 100 μm DEPC, triplicate).

B1: ARGP1: ACAT Related Gene Product 1, 488 amino acid protein (SEQ ID NO:1), proposed diacylglycerol acyltransferase (protein)
chain: MGDRGSSRRRRTGSRPSSHGGGGPAAAEEEVRDAAAGPDVGAAGDAPAPAPNKDGDAGVGSGHWELRCHRLQDSLFSSDSGFSNYRGILNWCVVMLILSNARLFLENLIKYGILVDPIQVVSLFLKDPHSWPAPCLVIAANVFAVAAFQVEKRLAVGALTEQAGLLLHVANLATILCFPAAVVLLVESITPVGSLLALMAHTILFLKLFSYRDVNSWCRRARAKAASAGKKASSAAAPHTVSYPDNLTYRDLYYFLFAPTLCYELNFPRSPRIRKRFLLRRILEMLFFTQLQVGLIQQWMVPTIQNSMKPFKDMDYSRIIERLLKLAVPNHLIWLIFFYWLFHSCLNAVAELMQFGDREFYRDWWNSESVTYFWQNWNIPVHKWCIRHFYKPMLRRGSSKWMARTGVFLASAFFHEYLVSVPLRMFRLWAFTGMMAQIPLAWFVGRFFQGNYGNAAVWLSLIIGQPIAVLMYVHDYYVLNYEAPAAEA
As for B1, the “ACAT activity (sterol esterification), result in words” value in data set [1] (expressed in yeast) is recorded as “did not display significant ACAT activity; also recorded: failed to detectably esterify cholesterol or ergosterol”. In data set [1] (microsomes of transformed yeast SCY059, exogenous cholesterol in Triton WR-1339, three experiments on different preparations), the “In Vitro Microsomal ACAT activity (cholesterol ester formation rate)” value is 4 +/- 3 pmol/minute/μg microsomal prot.

B2: ACAT1: human acyl Coenzyme A-cholesterol acyltransferase 1 expressed in yeast from cDNA (protein, UniProt P35610 1-550, looked up)
Sterol O-acyltransferase 1: T1 sequence (P35610 1-550)
Turning to B2, the “In Vitro Microsomal ACAT activity (cholesterol ester formation rate)” value in data set [1] is 340 +/- 76 pmol/minute/μg microsomal prot. Moreover, the “Active site Modification: Minus DEPC (ACAT activity)” value in data set [1] (no DEPC preincubation, representative experiment in triplicate) is reported as 340 +/- 16.
